Data set [1] has as its system neuro-2a mouse neuroblastoma cells. The settings on record: cited from earlier work; for fold less potent than ATX in producing toxicity: neuro-2a mouse neuroblastoma cells.
A further data set concerns the target T1, rNav1.2 α-subunit (Rattus norvegicus, UniProt P04775).
T1 construct: host or cells: CHL 1610 (Chinese hamster lung)
The experiment in a line: cell-based. It counts as cell-based. The settings on record: for EC50: rNav1.2-CHL 1610 cells, SBFI, 37°C, read-out: EC50 (nM) (95% CI), sodium influx.

The target of the next data set is T2, rNav1.4 α-subunit (Rattus norvegicus, UniProt P15390).
T2 construct: host or cells: HEK 293
T2 sequence (P15390 whole entry): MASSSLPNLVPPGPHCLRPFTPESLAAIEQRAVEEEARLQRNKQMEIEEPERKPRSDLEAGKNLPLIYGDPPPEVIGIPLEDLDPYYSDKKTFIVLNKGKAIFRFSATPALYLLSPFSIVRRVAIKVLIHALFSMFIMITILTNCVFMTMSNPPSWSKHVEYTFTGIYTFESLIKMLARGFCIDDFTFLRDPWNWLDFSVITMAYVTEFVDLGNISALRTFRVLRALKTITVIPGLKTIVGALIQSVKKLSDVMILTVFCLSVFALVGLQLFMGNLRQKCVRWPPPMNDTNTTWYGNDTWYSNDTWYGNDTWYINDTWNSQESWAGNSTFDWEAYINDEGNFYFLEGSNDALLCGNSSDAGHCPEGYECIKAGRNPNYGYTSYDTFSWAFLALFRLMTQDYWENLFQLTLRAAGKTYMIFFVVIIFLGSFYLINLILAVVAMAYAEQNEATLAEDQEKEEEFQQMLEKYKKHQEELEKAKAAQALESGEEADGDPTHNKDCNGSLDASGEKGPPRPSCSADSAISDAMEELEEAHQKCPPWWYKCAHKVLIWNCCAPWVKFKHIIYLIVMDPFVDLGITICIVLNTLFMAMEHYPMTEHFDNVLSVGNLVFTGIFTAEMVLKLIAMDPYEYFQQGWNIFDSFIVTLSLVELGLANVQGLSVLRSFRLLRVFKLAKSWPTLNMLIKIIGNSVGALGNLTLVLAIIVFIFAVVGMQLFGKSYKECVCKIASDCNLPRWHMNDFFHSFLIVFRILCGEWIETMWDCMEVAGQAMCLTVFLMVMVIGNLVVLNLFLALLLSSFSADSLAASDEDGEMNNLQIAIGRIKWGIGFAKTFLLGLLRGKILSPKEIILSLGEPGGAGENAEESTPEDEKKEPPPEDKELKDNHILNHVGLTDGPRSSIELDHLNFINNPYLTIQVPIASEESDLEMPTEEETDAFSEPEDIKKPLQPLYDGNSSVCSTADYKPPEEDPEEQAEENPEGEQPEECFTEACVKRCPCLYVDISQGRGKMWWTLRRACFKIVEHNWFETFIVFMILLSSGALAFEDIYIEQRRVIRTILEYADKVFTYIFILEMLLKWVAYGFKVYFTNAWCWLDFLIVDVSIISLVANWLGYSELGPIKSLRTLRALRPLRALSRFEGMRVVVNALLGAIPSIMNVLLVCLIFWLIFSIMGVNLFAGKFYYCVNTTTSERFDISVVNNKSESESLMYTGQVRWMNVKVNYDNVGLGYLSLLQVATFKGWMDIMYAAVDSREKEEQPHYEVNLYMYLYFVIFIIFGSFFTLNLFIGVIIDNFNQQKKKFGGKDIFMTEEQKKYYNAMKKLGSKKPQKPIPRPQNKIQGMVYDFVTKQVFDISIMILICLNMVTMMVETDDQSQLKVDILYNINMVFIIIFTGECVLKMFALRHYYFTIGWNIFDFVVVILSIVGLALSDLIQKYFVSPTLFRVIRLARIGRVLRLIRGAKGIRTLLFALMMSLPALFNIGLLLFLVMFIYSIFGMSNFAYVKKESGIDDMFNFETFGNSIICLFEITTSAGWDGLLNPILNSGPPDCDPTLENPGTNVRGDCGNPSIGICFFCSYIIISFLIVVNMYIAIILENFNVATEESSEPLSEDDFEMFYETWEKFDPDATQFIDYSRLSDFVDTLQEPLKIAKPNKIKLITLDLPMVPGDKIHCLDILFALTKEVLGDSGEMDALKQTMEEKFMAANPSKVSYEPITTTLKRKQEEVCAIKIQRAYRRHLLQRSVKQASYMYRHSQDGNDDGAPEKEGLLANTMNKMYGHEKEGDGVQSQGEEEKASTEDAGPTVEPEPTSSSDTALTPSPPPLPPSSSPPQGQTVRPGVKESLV
The experiment in a line: SBFI sodium influx assay in rNav1.4-HEK 293 cells. It counts as cell-based. The settings on record: for maximal response of sodium influx, area under the curve (AUC, fluorescence × time) (95%CI) / EC50: rNav1.4-HEK 293 cells; for EC50: SBFI, 37°C, read-out: EC50 (nM) (95% CI), sodium influx.

For another data set, the target named is T3, rNav1.5 α-subunit (Rattus norvegicus, UniProt P15389).
T3 construct: host or cells: CHL 1610 (Chinese hamster lung)
T3 sequence (P15389 whole entry): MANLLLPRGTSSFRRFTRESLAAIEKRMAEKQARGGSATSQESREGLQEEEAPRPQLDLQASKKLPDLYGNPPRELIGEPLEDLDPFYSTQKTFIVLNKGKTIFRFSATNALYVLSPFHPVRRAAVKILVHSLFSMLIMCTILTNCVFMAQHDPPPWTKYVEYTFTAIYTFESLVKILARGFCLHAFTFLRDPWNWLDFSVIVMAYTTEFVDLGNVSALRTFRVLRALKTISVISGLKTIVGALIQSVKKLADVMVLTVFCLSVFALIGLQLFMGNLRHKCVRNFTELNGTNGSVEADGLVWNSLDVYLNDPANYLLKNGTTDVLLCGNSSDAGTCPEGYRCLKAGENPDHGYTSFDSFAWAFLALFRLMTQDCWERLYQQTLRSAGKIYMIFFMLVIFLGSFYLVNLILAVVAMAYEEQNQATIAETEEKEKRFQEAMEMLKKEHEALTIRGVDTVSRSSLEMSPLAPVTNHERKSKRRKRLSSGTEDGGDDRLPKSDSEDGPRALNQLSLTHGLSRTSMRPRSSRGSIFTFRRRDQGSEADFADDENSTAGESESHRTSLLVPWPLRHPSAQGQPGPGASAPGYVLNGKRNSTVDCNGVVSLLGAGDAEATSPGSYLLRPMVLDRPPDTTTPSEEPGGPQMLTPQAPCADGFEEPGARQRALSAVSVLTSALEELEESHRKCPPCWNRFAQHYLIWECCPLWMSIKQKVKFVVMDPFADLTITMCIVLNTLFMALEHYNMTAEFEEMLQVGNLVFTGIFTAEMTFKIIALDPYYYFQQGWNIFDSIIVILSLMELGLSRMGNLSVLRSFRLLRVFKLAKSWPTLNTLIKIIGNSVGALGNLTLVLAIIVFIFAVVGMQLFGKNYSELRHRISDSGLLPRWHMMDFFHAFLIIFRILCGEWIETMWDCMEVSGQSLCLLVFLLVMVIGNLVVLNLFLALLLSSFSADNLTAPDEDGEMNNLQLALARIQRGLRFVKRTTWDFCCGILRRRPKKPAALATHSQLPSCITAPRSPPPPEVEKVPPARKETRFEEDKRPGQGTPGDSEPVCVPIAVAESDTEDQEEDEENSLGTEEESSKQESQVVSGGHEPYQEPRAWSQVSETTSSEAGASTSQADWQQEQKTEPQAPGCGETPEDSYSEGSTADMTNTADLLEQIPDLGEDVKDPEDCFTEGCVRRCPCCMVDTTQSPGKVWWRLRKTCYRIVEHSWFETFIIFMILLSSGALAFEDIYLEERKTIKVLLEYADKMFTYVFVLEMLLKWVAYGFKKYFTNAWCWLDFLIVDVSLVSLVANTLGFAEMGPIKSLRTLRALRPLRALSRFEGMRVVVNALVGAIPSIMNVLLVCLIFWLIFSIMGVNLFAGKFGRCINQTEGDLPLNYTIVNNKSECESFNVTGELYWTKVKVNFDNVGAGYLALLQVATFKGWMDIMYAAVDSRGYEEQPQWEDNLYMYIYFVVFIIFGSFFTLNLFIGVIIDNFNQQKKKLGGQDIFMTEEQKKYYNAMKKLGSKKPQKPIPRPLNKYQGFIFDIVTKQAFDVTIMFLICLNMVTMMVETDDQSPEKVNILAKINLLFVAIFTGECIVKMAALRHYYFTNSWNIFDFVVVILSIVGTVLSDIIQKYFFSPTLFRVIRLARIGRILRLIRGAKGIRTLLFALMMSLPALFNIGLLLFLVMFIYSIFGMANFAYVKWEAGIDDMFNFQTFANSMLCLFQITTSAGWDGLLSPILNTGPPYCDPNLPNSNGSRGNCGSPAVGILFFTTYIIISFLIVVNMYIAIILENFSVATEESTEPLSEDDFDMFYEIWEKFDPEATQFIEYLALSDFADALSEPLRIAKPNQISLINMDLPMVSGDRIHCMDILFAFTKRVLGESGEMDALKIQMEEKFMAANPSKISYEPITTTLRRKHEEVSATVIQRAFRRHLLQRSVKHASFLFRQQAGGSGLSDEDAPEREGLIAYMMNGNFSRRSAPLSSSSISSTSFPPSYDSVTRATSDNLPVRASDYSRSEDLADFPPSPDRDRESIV
The experiment in a line: SBFI sodium influx assay in rNav1.5-CHL 1610 cells. The settings on record: for EC50: rNav1.5-CHL 1610 cells, SBFI, 37°C, read-out: EC50 (nM) (95% CI), sodium influx. It counts as cell-based.

Data set [2] addresses T4, calcium-permeable DEAA mutant of rNav1.4 α-subunit (Rattus norvegicus, UniProt P15390, K1237A).
T4 construct: host or cells: HEK 293
Put plainly: fluo-3 calcium influx assay in DEAA-HEK 293 cells. It counts as cell-based. The settings on record: for EC50: fluo-3, read-out: EC50, Ca2+ influx (95% CI).

The next data set relates to HEK 293 cells. The experiment in a line: SBFI sodium influx assay in wild type HEK 293 parent cells. It counts as cell-based, human. The note with it: wild type HEK 293 parent cell line.
A further data set deals with CHL 1610 cells. Put plainly: SBFI sodium influx assay in wild type CHL 1610 parent cells. It counts as cell-based, Chinese hamster. The settings on record: wild type CHL 1610 parent cell line.
The subject of data set [3] is rNav1.2-CHL 1610, rNav1.4-HEK 293 and rNav1.5-CHL 160 cells. It counts as cell-based. The note with it: 1 μM ATX for 24 h; preliminary experiments. The method, then:
Supplementary file 1471-2202-11-154-S1.TIFF: Additional file 1 Lack of toxic effect of ATX in rNav1.2-CHL 1610, rNav1.4-HEK 293 and rNav1.5-CHL 160 cells. The cells were exposed to 1 μM ATX for 24 h and the medium was collected and subjected to LDH activity measurement as described by Koh and Choi (1987; Koh, JY, and Choi, DW. Quantitative determination of glutamate mediated cortical neuronal injury in cell culture by lactate dehydrogenase efflux assay. J Neurosci Methods 20:83-90). […] Click here for file

For another data set, the system named is neocortical neurons. The note with it: cited from earlier work.
In data set [4] the test system is sodium channel neurotoxin site 2. The settings on record: cited from earlier work.

Read-outs that look alike come from different tables or passages of the source.

A word on the EC50: it is the concentration needed to bring the measured effect to its halfway point. As usually defined, the IC50 is the concentration needed to halve the response being measured.

T4 sequence (P15390 whole entry K1237A): as the sequence (P15390 whole entry) above, with K1237A counted along it

For “8-demethyl-antillatoxin [reference compound]”, the “fold less potent than ATX in producing toxicity” value in [1] is given as 244 fold.

As to `C=C1CC(=O)N[C@@H](C)C(=O)N(C)[C@@H](C(C)C)C(=O)NCC(=O)O[C@@H](/C(C)=C/C(C)=C/C(C)(C)C)[C@@H]1C` [ATX, antillatoxin], the half-maximal effective concentration (EC50) on rNav1.2 α-subunit stood at 376 nM; at rNav1.4 α-subunit, 165 nM; at rNav1.5 α-subunit, 205 nM; in data set [2] (DEAA-HEK 293 cells), 165 nM. Moreover, the “Efficacy (relative), sodium influx” value at rNav1.2 α-subunit (rNav1.2, relative to ATX = 1) is reported as 1; at rNav1.4 α-subunit (rNav1.4, relative to ATX = 1), 1; at rNav1.5 α-subunit (rNav1.5, relative to ATX = 1), 1. The “maximal response of sodium influx, area under the curve (AUC, fluorescence × time) (95%CI)” value was 439.4 at rNav1.4 α-subunit (ATX alone) and 537.9 on rNav1.4 α-subunit (ATX in the presence of PbTx-2 (3 μM)). Moreover, the “fold more potent than in neuronal rNav1.2, sodium influx” value at rNav1.4 α-subunit (skeletal muscle rNav1.4 versus rNav1.2) and on rNav1.5 α-subunit (cardiac rNav1.5 versus rNav1.2) was 2 fold throughout. Further, the “sodium influx (in words)” value in the data set with HEK 293 cells and in the data set on CHL 1610 cells was “minimal sodium influx” each time. The “toxicity (LDH activity, in words)” value in data set [3] is listed as “not toxic”.

As for “brevetoxin-2 [PbTx-2, reference compound]”, the “Efficacy (relative), sodium influx” value at rNav1.2 α-subunit, at rNav1.4 α-subunit and on rNav1.5 α-subunit was 0 in each case. Moreover, in data set [2], the “stimulation of Ca2+ influx (in words)” value is “without effect”. Besides, the “efficacy, sodium influx” value in the data set with neocortical neurons is listed as 0.81.

Take `C=C1CC(=O)N[C@@H](C)C(=O)N(C)[C@@H](C(C)C)C(=O)NCC(=O)O[C@@H](/C(C)=C/CCC(C)(C)C)[C@@H]1C` [DH-ATX, 8-demethyl-8,9-dihydro-antillatoxin]: the EC50 on rNav1.2 α-subunit is 1130 nM; at rNav1.4 α-subunit it was 644 nM; at rNav1.5 α-subunit, 595 nM; in data set [2] (DEAA-HEK 293 cells), 680 nM; in data set [1] (neuro-2a neuroblastoma cells, read-out: EC50, toxicity) it was 1200 nM. The “Efficacy (relative), sodium influx” value on rNav1.2 α-subunit (rNav1.2, relative to ATX = 1) stood at 0.32; on rNav1.4 α-subunit (rNav1.4, relative to ATX = 1), 0.33; at rNav1.5 α-subunit (rNav1.5, relative to ATX = 1), 0.25. Moreover, the “fold less potent than ATX, stimulation of sodium influx” value on rNav1.2 α-subunit (stated for all three cell lines (rNav1.2-CHL 1610, rNav1.4-HEK 293, rNav1.5-CHL 1610)) is reported as 2.5 - 4 fold. Also, in [2] (DEAA-HEK 293 cells, relative to ATX), the “relative efficacy, Ca2+ influx” value was 0.24. Moreover, the “fold less potent than ATX in producing toxicity” value in [1] is given as 27 fold.

`NC1=N[C@H](O)[C@H]2[C@H]3O[C@]4(O)O[C@@H]([C@@H](O)[C@@]2(N1)[C@@H]4O)[C@]3(O)CO` [TTX, tetrodotoxin, reference compound]: at rNav1.4 α-subunit (read-out: IC50, inhibition of ATX-induced sodium influx (95% CI)), the IC50 is 25.2 nM.

As for `COc1ccc(C(=O)O[C@H]2CC[C@@]3(C)[C@@H]4CC[C@H]5[C@]6(O)C[C@H](O)[C@@]7(O)[C@@H](CN8C[C@@H](C)CC[C@H]8[C@@]7(C)O)[C@]6(O)C[C@@]53O[C@]24O)cc1OC` [Veratridine, veratridine, reference compound], the “Efficacy (relative), sodium influx” value at rNav1.2 α-subunit (rNav1.2, relative to ATX = 1) was 0; on rNav1.4 α-subunit (rNav1.4, relative to ATX = 1), 0; on rNav1.5 α-subunit (rNav1.5, relative to ATX = 1), 0. Besides, in data set [2] (DEAA-HEK 293 cells), the “stimulation of Ca2+ influx (in words)” value is on record as “without effect”. Besides, in the data set with neocortical neurons (neocortical neurons), the “efficacy, sodium influx” value was 0.67.

Turning to `CCC[C@@H](C)[C@H](O)[C@H](C)[C@H]1OC(=O)[C@H]([C@@H](C)O)NC(=O)[C@H](C(C)C)OC(=O)[C@H](C)[C@H](O)[C@H]([C@@H](C)CC)NC(=O)[C@@]2(C)CSC(=N2)[C@@]2(C)CSC(=N2)c2csc(n2)C[C@H](OC)[C@@H]1C` [Hoiamide A, hoiamide A], the “fold more potent than veratridine, inhibition of [3H]BTX binding” value in data set [4] is recorded as 360 fold. In addition, in data set [4] (read-out: IC50, inhibition of [3H]BTX binding), the half-inhibitory concentration (IC50) is 92.8 nM.
